Assay: Saturation concentration of paclitaxel in various release media (HPLC)
Assay type: physicochemical
Protocol: Paclitaxel concentrations were then measured with a Waters 2965 series HPLC (commercially available from Waters Corporation). A 20 μL from each sample was injected into a Phenomenex ODS-2 INERTSIL (5.0 μm, 150 mm×4.6, from Phenomenex) which was maintained at about 30° C. The sample runs were conducted for about 10 minutes, with a flow rate at 0.8 mL/minute. The mobile phase included about 55% acetonitrile and 45% water (v/v). The paclitaxel was detected at a wavelength of about 230 nm with a photodiode array detector (Waters series 2996, commercially available from Waters Corporation).
A release medium, including phosphate buffered saline (PBS) with about 0.1% of a polyethoxylated fatty acid ester of sorbitan (also referred to as polysorbates, commercially available as TWEEN™ 80) (w/v) and about 0.5% sodium dodecylsulfate (SDS) (w/v) was prepared as follows. About 100 mL of 10×PBS concentrate was added to a 1 liter volumetric flask. The flask was filled to the line with Milli-Q water and stirred for about 15 minutes. To the solution, about 1 mL of TWEEN™ 80 was added and stirred with a magnetic stir bar until the TWEEN™ 80 was completely dissolved. Approximately 5 grams of sodium dodecylsulfate was then added and the solution was stirred for about 45 minutes. The pH of the solution was tested and found to be about 7.3.
The saturation concentration of paclitaxel in various release media was determined using the previously mentioned high pressure liquid chromatography method. In addition to the release media including PBS with about 0.1% TWEEN™ 80 and 0.5% Sodium Dodecyl Sulfate described above, other media were similarly tested. The additional media included PBS with about 0.1% by weight PLURAFAC® surfactant (commercially available from BASF), PBS with about 0.1% by weight TWEEN™ 80, and PBS with about 0.8% by weight Dimethyl-b-Cyclodextrin. A summary of the results is provided below in Table 1.

Saturation concentration of Paclitaxel (Media: PBS w/0.1% Plurafac): 0.1 ± .01 µg/mL
Saturation concentration of Paclitaxel (Media: PBS w/0.1% TWEEN 80): 2.2 ± 0.2 µg/mL
Saturation concentration of Paclitaxel (Media: PBS w/0.1% TWEEN 80 and 0.5% Sodium Dodecyl Sulfate): 52.8 ± 6.4 µg/mL
Saturation concentration of Paclitaxel (Media: PBS w/0.8% Dimethyl-b-Cyclodextrin): 7.3 µg/mL
SMILES: CC(=O)O[C@H]1C(=O)[C@@]2(C)[C@H]([C@H](OC(=O)c3ccccc3)[C@]3(O)C[C@H](OC(=O)[C@H](O)[C@@H](NC(=O)c4ccccc4)c4ccccc4)C(C)=C1C3(C)C)[C@]1(OC(C)=O)CO[C@@H]1C[C@@H]2O [Paclitaxel, paclitaxel]
